In US20250353873A1, “COMPOUNDS AND METHODS FOR MODULATING APOE EXPRESSION” (Ionis Pharmaceuticals, Inc., priority 2024, published 2025):
pIC50: −log10 of the molar value. Strand notation (5' to 3'): a small letter for the sugar, then the base; units joined by * are phosphorothioate-linked, units joined directly phosphodiester-linked; [ ] holds rarer units or linkages, { } end groups; capitals alone tell only the bases. [ms] = mesyl phosphoramidate linkage; e = 2'-O-(2-methoxyethyl) (MOE); k = constrained ethyl (cEt); [5mC] = 5-methylcytosine; d = 2'-deoxy (DNA)

Tests used:
human APOE RNA [1] = experiment: Dose-dependent reduction of human APOE RNA in HepG2 cells, electroporation, 20,000 cells per well, average of GAPDH- and PPIA-normalized results (Example 4, Table 12); assay type: cell-based; conditions: HepG2, 20,000 cells per well; for pIC50: approximately 24 hours
Procedure, shortened: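 Modified oligonucleotides at various concentrations were electroporated into HepG2 cells. APOE RNA was quantified by RT-qPCR, normalized separately to GAPDH and PPIA, and the two averaged as % of untreated control; IC50 was calculated from the dose series.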

human APOE RNA [2] = experiment: Dose-dependent inhibition of human APOE RNA in differentiated SH-SY5Y cells, free uptake, 5 days (Example 5); assay type: cell-based; conditions: 5 days (Table 14)
Procedure, shortened: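 Differentiated SH-SY5Y cells (10,000/well) treated by free uptake with graded oligonucleotide concentrations for 5 days. APOE RNA quantified with primer probe set RTS3073, normalized to PPIA, expressed as % untreated control; IC50 calculated.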

human APOE RNA [3] = experiment: Activity in APOE C57BL/6NTac-Apoeem7250 knock-in mice, single ICV bolus, 4 weeks (Example 10); assay type: in vivo; conditions: single ICV bolus 300 μg, 4 weeks post treatment, normalized to mouse Ppia
Procedure, shortened: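 Knock-in mice (2–4 per group) received one 300 μg ICV bolus of oligonucleotide or PBS. After four weeks, human APOE RNA in cortex and spinal cord measured by RT-qPCR (primer probe set RTS3073), normalized to mouse Ppia, expressed as % of PBS controls.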

human APOE RNA [4] = experiment: Activity in APOE C57BL/6NTac-Apoeem7250 knock-in mice, single ICV bolus, 8 weeks (Example 11); assay type: in vivo; conditions: single ICV bolus 300 μg, 8 weeks post treatment, normalized to mouse Ppia
Procedure, shortened: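 Human APOE knock-in C57BL/6NTac mice given one ICV bolus of 300 μg oligonucleotide; PBS-dosed group as control. At 8 weeks, cortex and spinal cord RNA measured by qRT-PCR (human probe RTS3073), normalized to mouse Ppia, expressed as % of PBS control.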

human APOE RNA [5] = experiment: Activity in APOE C57BL/6NTac-Apoeem7250 knock-in mice, single ICV bolus, 20 weeks (Example 13); assay type: in vivo; conditions: single ICV bolus 300 μg, 20 weeks post treatment, normalized to mouse Ppia
Procedure, shortened: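 Knock-in mice (n=4) given a single ICV bolus of 300 μg oligonucleotide, PBS as control. After 20 weeks, human APOE RNA in cortex and spinal cord measured by RT-qPCR, normalized to mouse Ppia, expressed as % of PBS-treated animals.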

Row | Substance | APOE RNA (% UTC) (human APOE RNA [1]; 5 nM) | APOE RNA (% UTC) (human APOE RNA [1]; 13 nM) | APOE RNA (% UTC) (human APOE RNA [1]; 33 nM) | APOE RNA (% UTC) (human APOE RNA [1]; 82 nM) | APOE RNA (% UTC) (human APOE RNA [1]; 205 nM) | APOE RNA (% UTC) (human APOE RNA [1]; 512 nM) | APOE RNA (% UTC) (human APOE RNA [1]; 1,280 nM) | APOE RNA (% UTC) (human APOE RNA [1]; 3,200 nM) | APOE RNA (% UTC) (human APOE RNA [1]; 8,000 nM) | APOE RNA (% UTC) (human APOE RNA [1]; 20,000 nM) | pIC50 (human APOE RNA [1]) | APOE RNA (% UTC) (human APOE RNA [2]; 5 nM) | APOE RNA (% UTC) (human APOE RNA [2]; 13 nM) | APOE RNA (% UTC) (human APOE RNA [2]; 33 nM) | APOE RNA (% UTC) (human APOE RNA [2]; 82 nM) | APOE RNA (% UTC) (human APOE RNA [2]; 205 nM) | APOE RNA (% UTC) (human APOE RNA [2]; 512 nM) | APOE RNA (% UTC) (human APOE RNA [2]; 1,280 nM) | APOE RNA (% UTC) (human APOE RNA [2]; 3,200 nM) | APOE RNA (% UTC) (human APOE RNA [2]; 8,000 nM) | also measured
1 | 1778128: modified oligonucleotide complementary to human APOE RNA (eA*e[5mC]eTeTkGkG*dT*dG[ms]dA[ms]dA*dT*d[5mC]*dT*dT*dT*dA[ms]kTeT*eA*eA; antisense) [compound 1778128] | 96 | 95 | 83 | 67 | 60 | 37 | 24 | 25 | 22 | 14 | 6.46 | 91 | 51 | 99 | 63 | 74 | 32 | 30 | 40 | 33 | APOE RNA (% UTC) (human APOE RNA [2]; 20,000 nM): 23 % UTC; pIC50 (human APOE RNA [2]): 6.28; APOE RNA (% control) Cortex (human APOE RNA [3]): 31 % control; APOE RNA (% control) Spinal Cord (human APOE RNA [3]): 40 % control; APOE RNA (% control) Cortex (human APOE RNA [4]): 27 % control; APOE RNA (% control) Spinal Cord (human APOE RNA [4]): 25 % control; APOE RNA (% control) Cortex (human APOE RNA [5]): 60 % control; APOE RNA (% control) Spinal Cord (human APOE RNA [5]): 22 % control
2 | 1778130: modified oligonucleotide complementary to human APOE RNA (eA*e[5mC]eTeTeG*kG*dT*dG[ms]dA[ms]dA*dT*d[5mC]*dT*dT*dT*dA[ms]kTkT*eA*eA; antisense) [compound 1778130] | 99 | 100 | 85 | 72 | 52 | 45 | 20 | 12 | 18 | 9 | 6.51 | 78 | 75 | 75 | 51 | 54 | 56 | 51 | 31 | 24 | APOE RNA (% UTC) (human APOE RNA [2]; 20,000 nM): 12 % UTC; pIC50 (human APOE RNA [2]): 6.43; APOE RNA (% control) Cortex (human APOE RNA [3]): 31 % control; APOE RNA (% control) Spinal Cord (human APOE RNA [3]): 34 % control; APOE RNA (% control) Cortex (human APOE RNA [4]): 23 % control; APOE RNA (% control) Spinal Cord (human APOE RNA [4]): 18 % control; APOE RNA (% control) Cortex (human APOE RNA [5]): 48 % control; APOE RNA (% control) Spinal Cord (human APOE RNA [5]): 19 % control
3 | 1778131: modified oligonucleotide complementary to human APOE RNA (eA*e[5mC]eTeTeGkG*dT*dG[ms]dA[ms]dA*dT*d[5mC]*dT*dT*dT*dA[ms]kTkT*eA*eA; antisense) [compound 1778131] | 102 | 86 | 85 | 70 | 56 | 36 | 25 | 25 | 5 | 6 | 6.54 | 69 | 103 | 89 | 69 | 64 | 31 | 45 | 55 | 25 | APOE RNA (% UTC) (human APOE RNA [2]; 20,000 nM): 12 % UTC; pIC50 (human APOE RNA [2]): 6.16; APOE RNA (% control) Cortex (human APOE RNA [3]): 29 % control; APOE RNA (% control) Spinal Cord (human APOE RNA [3]): 49 % control; APOE RNA (% control) Cortex (human APOE RNA [4]): 29 % control; APOE RNA (% control) Spinal Cord (human APOE RNA [4]): 24 % control; APOE RNA (% control) Cortex (human APOE RNA [5]): 65 % control; APOE RNA (% control) Spinal Cord (human APOE RNA [5]): 43 % control
